Assay results as given in PubChem BioAssay (NCI).
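These data come from cells grown in 96-well plates and exposed to compound for 48 hours at five concentrations. TGI: total growth inhibition.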

Key:
Experiment in all cases: growth of human tumour cells (NCI), 48 h
786-0 renal = test system: 786-0 renal
A549 NSCLC = test system: A549 NSCLC
ACHN renal = test system: ACHN renal
BT-549 breast = test system: BT-549 breast
CAKI-1 renal = test system: CAKI-1 renal
CCRF-CEM leukemia = test system: CCRF-CEM leukemia
COLO 205 colon = test system: COLO 205 colon
DU-145 prostate = test system: DU-145 prostate
EKVX NSCLC = test system: EKVX NSCLC
HCC-2998 colon = test system: HCC-2998 colon
HCT-116 colon = test system: HCT-116 colon
HCT-15 colon = test system: HCT-15 colon
HL-60(TB) leukemia = test system: HL-60(TB) leukemia
HOP-62 NSCLC = test system: HOP-62 NSCLC
HOP-92 NSCLC = test system: HOP-92 NSCLC
HS 578T breast = test system: HS 578T breast
HT29 colon = test system: HT29 colon
IGROV1 ovarian = test system: IGROV1 ovarian
KM12 colon = test system: KM12 colon
LOX IMVI melanoma = test system: LOX IMVI melanoma
M14 melanoma = test system: M14 melanoma
MCF7 breast = test system: MCF7 breast
MDA-MB-231 breast = test system: MDA-MB-231 breast
MDA-MB-435 = test system: MDA-MB-435
MDA-N = test system: MDA-N
MOLT-4 leukemia = test system: MOLT-4 leukemia
NCI-H23 lung = test system: NCI-H23 lung
NCI-H460 lung = test system: NCI-H460 lung
NCI-H522 lung = test system: NCI-H522 lung
NCI/ADR-RES ovarian = test system: NCI/ADR-RES ovarian
OVCAR-3 ovarian = test system: OVCAR-3 ovarian
OVCAR-4 ovarian = test system: OVCAR-4 ovarian
OVCAR-5 ovarian = test system: OVCAR-5 ovarian
OVCAR-8 ovarian = test system: OVCAR-8 ovarian
PC-3 prostate = test system: PC-3 prostate
RPMI-8226 leukemia = test system: RPMI-8226 leukemia
SF-268 CNS = test system: SF-268 CNS
SF-295 CNS = test system: SF-295 CNS
SF-539 CNS = test system: SF-539 CNS
SK-MEL-2 melanoma = test system: SK-MEL-2 melanoma
SK-MEL-28 melanoma = test system: SK-MEL-28 melanoma
SK-MEL-5 melanoma = test system: SK-MEL-5 melanoma
SN12C renal = test system: SN12C renal
SNB-19 CNS = test system: SNB-19 CNS
SNB-75 CNS = test system: SNB-75 CNS
SR leukemia = test system: SR leukemia
SW-620 colon = test system: SW-620 colon
T-47D breast = test system: T-47D breast
TK-10 renal = test system: TK-10 renal
U251 CNS = test system: U251 CNS
UACC-257 melanoma = test system: UACC-257 melanoma
UACC-62 melanoma = test system: UACC-62 melanoma
UO-31 renal = test system: UO-31 renal
K-562 leukemia = test system: K-562 leukemia
MALME-3M melanoma = test system: MALME-3M melanoma
NCI-H226 lung = test system: NCI-H226 lung
RXF 393 renal = test system: RXF 393 renal
SK-OV-3 ovarian = test system: SK-OV-3 ovarian

c1ccc(CSP234N5CCN2CCN3CCN4CC5)c(CSP234N5CCN2CCN3CCN4CC5)c1
TGI (786-0 renal): > 100 µM
TGI (A549 NSCLC): > 100 µM
TGI (ACHN renal): > 100 µM
TGI (BT-549 breast): > 100 µM
TGI (CAKI-1 renal): > 100 µM
TGI (CCRF-CEM leukemia): > 100 µM
TGI (COLO 205 colon): 47.3 µM
TGI (DU-145 prostate): > 100 µM
TGI (EKVX NSCLC): > 100 µM
TGI (HCC-2998 colon): > 100 µM
TGI (HCT-116 colon): > 100 µM
TGI (HCT-15 colon): > 100 µM
TGI (HL-60(TB) leukemia): 77 µM
TGI (HOP-62 NSCLC): > 100 µM
TGI (HOP-92 NSCLC): > 100 µM
TGI (HS 578T breast): > 100 µM
TGI (HT29 colon): > 100 µM
TGI (IGROV1 ovarian): > 100 µM
TGI (KM12 colon): > 100 µM
TGI (LOX IMVI melanoma): > 100 µM
TGI (M14 melanoma): > 100 µM
TGI (MCF7 breast): > 100 µM
TGI (MDA-MB-231 breast): > 100 µM
TGI (MDA-MB-435): > 100 µM
TGI (MDA-N): 82.8 µM
TGI (MOLT-4 leukemia): > 100 µM
TGI (NCI-H23 lung): > 100 µM
TGI (NCI-H460 lung): > 100 µM
TGI (NCI-H522 lung): > 100 µM
TGI (NCI/ADR-RES ovarian): > 100 µM
TGI (OVCAR-3 ovarian): > 100 µM
TGI (OVCAR-4 ovarian): > 100 µM
TGI (OVCAR-5 ovarian): > 100 µM
TGI (OVCAR-8 ovarian): > 100 µM
TGI (PC-3 prostate): > 100 µM
TGI (RPMI-8226 leukemia): > 100 µM
TGI (SF-268 CNS): > 100 µM
TGI (SF-295 CNS): > 100 µM
TGI (SF-539 CNS): > 100 µM
TGI (SK-MEL-2 melanoma): > 100 µM
TGI (SK-MEL-28 melanoma): > 100 µM
TGI (SK-MEL-5 melanoma): > 100 µM
TGI (SN12C renal): > 100 µM
TGI (SNB-19 CNS): > 100 µM
TGI (SNB-75 CNS): > 100 µM
TGI (SR leukemia): > 100 µM
TGI (SW-620 colon): > 100 µM
TGI (T-47D breast): > 100 µM
TGI (TK-10 renal): > 100 µM
TGI (U251 CNS): > 100 µM
TGI (UACC-257 melanoma): > 100 µM
TGI (UACC-62 melanoma): > 100 µM
TGI (UO-31 renal): > 100 µM

Cc1cc(=O)n2nc(CN3CCCCC3)sc2n1
TGI (786-0 renal): > 100 µM
TGI (A549 NSCLC): > 100 µM
TGI (ACHN renal): > 100 µM
TGI (BT-549 breast): > 100 µM
TGI (CAKI-1 renal): > 100 µM
TGI (CCRF-CEM leukemia): > 100 µM
TGI (COLO 205 colon): > 100 µM
TGI (DU-145 prostate): > 100 µM
TGI (EKVX NSCLC): > 100 µM
TGI (HCC-2998 colon): > 100 µM
TGI (HCT-116 colon): > 100 µM
TGI (HCT-15 colon): > 100 µM
TGI (HL-60(TB) leukemia): > 100 µM
TGI (HOP-62 NSCLC): > 100 µM
TGI (HOP-92 NSCLC): > 100 µM
TGI (HS 578T breast): > 100 µM
TGI (HT29 colon): > 100 µM
TGI (IGROV1 ovarian): > 100 µM
TGI (K-562 leukemia): > 100 µM
TGI (KM12 colon): > 100 µM
TGI (LOX IMVI melanoma): > 100 µM
TGI (M14 melanoma): > 100 µM
TGI (MALME-3M melanoma): > 100 µM
TGI (MCF7 breast): > 100 µM
TGI (MDA-MB-231 breast): > 100 µM
TGI (MDA-MB-435): > 100 µM
TGI (MDA-N): > 100 µM
TGI (MOLT-4 leukemia): > 100 µM
TGI (NCI-H226 lung): > 100 µM
TGI (NCI-H23 lung): > 100 µM
TGI (NCI-H460 lung): > 100 µM
TGI (NCI-H522 lung): > 100 µM
TGI (NCI/ADR-RES ovarian): > 100 µM
TGI (OVCAR-3 ovarian): > 100 µM
TGI (OVCAR-4 ovarian): > 100 µM
TGI (OVCAR-5 ovarian): > 100 µM
TGI (OVCAR-8 ovarian): > 100 µM
TGI (PC-3 prostate): > 100 µM
TGI (RPMI-8226 leukemia): > 100 µM
TGI (RXF 393 renal): > 100 µM
TGI (SF-268 CNS): > 100 µM
TGI (SF-295 CNS): > 100 µM
TGI (SF-539 CNS): > 100 µM
TGI (SK-MEL-2 melanoma): > 100 µM
TGI (SK-MEL-28 melanoma): > 100 µM
TGI (SK-MEL-5 melanoma): > 100 µM
TGI (SK-OV-3 ovarian): > 100 µM
TGI (SN12C renal): > 100 µM
TGI (SNB-19 CNS): > 100 µM
TGI (SNB-75 CNS): > 100 µM
TGI (SR leukemia): > 100 µM
TGI (SW-620 colon): > 100 µM
TGI (T-47D breast): > 100 µM
TGI (TK-10 renal): > 100 µM
TGI (U251 CNS): > 100 µM
TGI (UACC-257 melanoma): > 100 µM
TGI (UACC-62 melanoma): > 100 µM
TGI (UO-31 renal): > 100 µM
